Reference: patent US5773421A, “Antifungal fusacandins” (Abbott Laboratories, priority 1995, dated 1998)
≈ marks a conversion by molar mass, not a printed value. Where two headings read alike, the source gives them in different places.

What was measured:
Experiment in all cases: MIC by agar dilution method
Type in all cases: cell-based
[1] = tested on: Candida albicans ATCC 10231
Method: (§1) Minimal inhibitory concentrations (MICs) were determined by an agar dilution method. The test compounds were serially diluted in MeOH and 0.2 mL portions were mixed with 20 mL of molten, cooled Sabouraud dextrose agar (Difco). Yeast cell inoculum was prepared by growing cultures on Sabouraud dextrose agar for 18 hours at 32° C. and suspending the cells in phosphate buffered saline. Filamentous fungi were grown under the same conditions for 4 days to obtain spores. The inoculum level for all cultures was adjusted to 10^4 cells using a Petroff-Hauser cell counter. The glutarimide antifungal compounds cycloheximide or amphotericin B were used as a control. Inoculated test plates were incubated at 32° C. and examined after 20 hours.

[2] = tested on: Candida albicans ATCC 62376
Method: as §1

Candida albicans 579a = details: read-out: MIC II
Method: as §1

[3] = tested on: Candida albicans ATCC 38247
Method: as §1

Candida albicans CCH 442 = details: CCH442; Table 6c, 3rd value column (head printed II); III Candida albicans CCH 442; agar dilution; read-out: MIC II
Method: as §1

[4] = ATCC10231, Table 6c, I Candida albicans ATCC 10231, agar dilution, read-out: MIC I
[5] = ATCC62376, Table 6c, V Candida albicans ATCC 62376, agar dilution, read-out: MIC V
[6] = Table 6c, II Candida albicans 579a, agar dilution
[7] = ATCC38247, Table 6c, IV Candida albicans ATCC 38247, agar dilution, read-out: MIC IV
[8] = Candida albicans, ATCC10231, read-out: MIC I
[9] = Candida albicans, ATCC62376, read-out: MIC V
[10] = Candida albicans, ATCC38247, read-out: MIC IV

| SMILES | MIC [1, 4] | MIC [2, 5] | MIC (Candida albicans 579a; [6]) | MIC [3, 7] | MIC (Candida albicans CCH 442) | MIC [1, 8] | MIC [2, 9] | MIC (Candida albicans 579a; Candida albicans, 579A) | MIC [3, 10] |
| --- | --- | --- | --- | --- | --- | --- | --- | --- | --- |
| CCCCC/C=C/C=C/C(=O)OC[C@H]1O[C@@H](O[C@H]2[C@H](OC(=O)/C=C/C=C/C[C@H](O)/C=C/C=C/CCCCC)[C@@H](O)[C@H](c3c(O)cc(O)cc3CO)O[C@@H]2CO)[C@H](O[C@@H]2O[C@H](CO)[C@H](O)[C@H](O)[C@H]2O)[C@@H](O)[C@H]1O [Example 11] | 1.56 µg/mL (≈ 1.52 µM) | 3.12 µg/mL (≈ 3.05 µM) | 0.78 µg/mL (≈ 0.762 µM) | 1.56 µg/mL (≈ 1.52 µM) | 1.56 µg/mL (≈ 1.52 µM) |  |  |  |  |
| CCCCC/C=C/C=C/[C@@H](O)C/C=C/C=C/C(=O)O[C@@H]1[C@@H](O)[C@H](c2c(O)cc(O)cc2CO)O[C@H](CO)[C@H]1O[C@@H]1O[C@H](COC(=O)CCC)[C@H](O)[C@H](O)[C@H]1O[C@@H]1O[C@H](CO)[C@H](O)[C@H](O)[C@H]1O [Example 12] | 50 µg/mL (≈ 53 µM) | 50 µg/mL (≈ 53 µM) | 50 µg/mL (≈ 53 µM) | 25 µg/mL (≈ 26.5 µM) | 25 µg/mL (≈ 26.5 µM) |  |  |  |  |
| CCCCC/C=C/C=C/[C@@H](O)C/C=C/C=C/C(=O)O[C@@H]1[C@@H](O)[C@H](c2c(O)cc(O)cc2CO)O[C@H](CO)[C@H]1O[C@@H]1O[C@H](COC(=O)CCCCCCCCC)[C@H](O)[C@H](O)[C@H]1O[C@@H]1O[C@H](CO)[C@H](O)[C@H](O)[C@H]1O [Example 13] | 12.5 µg/mL (≈ 12.2 µM) | 12.5 µg/mL (≈ 12.2 µM) | 12.5 µg/mL (≈ 12.2 µM) | 12.5 µg/mL (≈ 12.2 µM) | 6.25 µg/mL (≈ 6.08 µM) |  |  |  |  |
| CCCCC/C=C/C=C/[C@@H](O)C/C=C/C=C/C(=O)O[C@@H]1[C@@H](O)[C@H](c2c(O)cc(O)cc2CO)O[C@H](CO)[C@H]1O[C@@H]1O[C@H](COC(=O)c2ccccc2)[C@H](O)[C@H](O)[C@H]1O[C@@H]1O[C@H](CO)[C@H](O)[C@H](O)[C@H]1O [Example 14] | 12.5 µg/mL (≈ 12.8 µM) | 12.5 µg/mL (≈ 12.8 µM) | 6.25 µg/mL (≈ 6.4 µM) | 6.25 µg/mL (≈ 6.4 µM) | 12.5 µg/mL (≈ 12.8 µM) |  |  |  |  |
| CCCCC/C=C/C=C/[C@@H](O)C/C=C/C=C/C(=O)O[C@@H]1[C@@H](O)[C@H](c2c(O)cc(O)cc2CO)O[C@H](CO)[C@H]1O[C@@H]1O[C@H](COC(=O)c2ccc(CCCC)cc2)[C@H](O)[C@H](O)[C@H]1O[C@@H]1O[C@H](CO)[C@H](O)[C@H](O)[C@H]1O [Example 15] | 3.12 µg/mL (≈ 3.02 µM) | 1.56 µg/mL (≈ 1.51 µM) | 0.78 µg/mL (≈ 0.755 µM) | 1.56 µg/mL (≈ 1.51 µM) | 3.12 µg/mL (≈ 3.02 µM) |  |  |  |  |
| CCCCC/C=C/C=C/[C@@H](O)C/C=C/C=C/C(=O)O[C@@H]1[C@@H](O)[C@H](c2c(O)cc(O)cc2CO)O[C@H](CO)[C@H]1O[C@@H]1O[C@H](COC(=O)/C=C/c2ccccc2)[C@H](O)[C@H](O)[C@H]1O[C@@H]1O[C@H](CO)[C@H](O)[C@H](O)[C@H]1O [Example 16] | 12.5 µg/mL (≈ 12.5 µM) | 12.5 µg/mL (≈ 12.5 µM) | 12.5 µg/mL (≈ 12.5 µM) | 6.25 µg/mL (≈ 6.23 µM) | 12.5 µg/mL (≈ 12.5 µM) |  |  |  |  |
| CCCCC/C=C/C=C/[C@@H](O)C/C=C/C=C/C(=O)O[C@@H]1[C@@H](O)[C@H](c2c(O)cc(O)cc2CO)O[C@H](CO)[C@H]1O[C@@H]1O[C@H](COC(=O)/C=C/c2cc(C(C)(C)C)cc(C(C)(C)C)c2)[C@H](O)[C@H](O)[C@H]1O[C@@H]1O[C@H](CO)[C@H](O)[C@H](O)[C@H]1O [Example 17] | 6.25 µg/mL (≈ 5.6 µM) | 6.25 µg/mL (≈ 5.6 µM) | 3.12 µg/mL (≈ 2.8 µM) | 3.12 µg/mL (≈ 2.8 µM) | 3.12 µg/mL (≈ 2.8 µM) |  |  |  |  |
| CCCCC/C=C/C=C/[C@@H](O)C/C=C/C=C/C(=O)O[C@@H]1[C@@H](O)[C@H](c2c(O)cc(O)cc2CO)O[C@H](CO)[C@H]1O[C@@H]1O[C@H](COC(=O)c2ccc(OCCCCCCCC)cc2)[C@H](O)[C@H](O)[C@H]1O[C@@H]1O[C@H](CO)[C@H](O)[C@H](O)[C@H]1O [Example 18] | 3.12 µg/mL (≈ 2.82 µM) | 0.78 µg/mL (≈ 0.706 µM) | 1.56 µg/mL (≈ 1.41 µM) | 1.56 µg/mL (≈ 1.41 µM) | 1.56 µg/mL (≈ 1.41 µM) |  |  |  |  |
| CCCCC/C=C/C=C/[C@@H](O)C/C=C/C=C/C(=O)O[C@@H]1[C@@H](O)[C@H](c2c(O)cc(O)cc2CO)O[C@H](CO)[C@H]1O[C@@H]1O[C@H](COC(=O)c2ccc3ccccc3c2)[C@H](O)[C@H](O)[C@H]1O[C@@H]1O[C@H](CO)[C@H](O)[C@H](O)[C@H]1O [Example 19] | 3.12 µg/mL (≈ 3.04 µM) | 3.12 µg/mL (≈ 3.04 µM) | 0.78 µg/mL (≈ 0.759 µM) | 0.78 µg/mL (≈ 0.759 µM) | 1.56 µg/mL (≈ 1.52 µM) |  |  |  |  |
| CCCCC/C=C/C=C/[C@@H](O)C/C=C/C=C/C(=O)O[C@@H]1[C@@H](O)[C@H](c2c(O)cc(O)cc2CO)O[C@H](CO)[C@H]1O[C@@H]1O[C@H](COC(=O)c2cccc3ccccc23)[C@H](O)[C@H](O)[C@H]1O[C@@H]1O[C@H](CO)[C@H](O)[C@H](O)[C@H]1O [Example 20] | 3.12 µg/mL (≈ 3.04 µM) | 6.25 µg/mL (≈ 6.09 µM) | 3.12 µg/mL (≈ 3.04 µM) | 1.56 µg/mL (≈ 1.52 µM) | 3.12 µg/mL (≈ 3.04 µM) |  |  |  |  |
| CCCCC/C=C/C=C/[C@@H](O)C/C=C/C=C/C(=O)O[C@@H]1[C@@H](O)[C@H](c2c(O)cc(O)cc2CO)O[C@H](CO)[C@H]1O[C@@H]1O[C@H](COC(=O)c2ccc(-c3ccc(CC)cc3)cc2)[C@H](O)[C@H](O)[C@H]1O[C@@H]1O[C@H](CO)[C@H](O)[C@H](O)[C@H]1O [Example 21] | 0.78 µg/mL (≈ 0.721 µM) | 0.39 µg/mL (≈ 0.361 µM) | 0.2 µg/mL (≈ 0.185 µM) | 0.78 µg/mL (≈ 0.721 µM) | 0.78 µg/mL (≈ 0.721 µM) |  |  |  |  |
| CCCCC/C=C/C=C/[C@@H](O)C/C=C/C=C/C(=O)O[C@@H]1[C@@H](O)[C@H](c2c(O)cc(O)cc2CO)O[C@H](CO)[C@H]1O[C@@H]1O[C@H](COC(=O)Cc2ccc3ccccc3c2)[C@H](O)[C@H](O)[C@H]1O[C@@H]1O[C@H](CO)[C@H](O)[C@H](O)[C@H]1O [Example 22] | 6.25 µg/mL (≈ 6 µM) | 6.25 µg/mL (≈ 6 µM) | 3.12 µg/mL (≈ 3 µM) | 12.5 µg/mL (≈ 12 µM) | 3.12 µg/mL (≈ 3 µM) |  |  |  |  |
| C=CCOc1ccc2cc(C(=O)OC[C@H]3O[C@@H](O[C@H]4[C@H](OC(=O)/C=C/C=C/C[C@H](O)/C=C/C=C/CCCCC)[C@@H](O)[C@H](c5c(O)cc(O)cc5CO)O[C@@H]4CO)[C@H](O[C@@H]4O[C@H](CO)[C@H](O)[C@H](O)[C@H]4O)[C@@H](O)[C@H]3O)ccc2c1 [Example 23] | 12.5 µg/mL (≈ 11.5 µM) | 6.25 µg/mL (≈ 5.77 µM) | 3.12 µg/mL (≈ 2.88 µM) | 6.25 µg/mL (≈ 5.77 µM) | 6.25 µg/mL (≈ 5.77 µM) |  |  |  |  |
| CCCCC/C=C/C=C/[C@@H](O)C/C=C/C=C/C(=O)O[C@@H]1[C@@H](O)[C@H](c2c(O)cc(O)cc2CO)O[C@H](CO)[C@H]1O[C@@H]1O[C@H](COC(=O)c2ccc3cc(OCc4ccccc4)ccc3c2)[C@H](O)[C@H](O)[C@H]1O[C@@H]1O[C@H](CO)[C@H](O)[C@H](O)[C@H]1O [Example 24] | 25 µg/mL (≈ 22.1 µM) | 25 µg/mL (≈ 22.1 µM) | 25 µg/mL (≈ 22.1 µM) | 50 µg/mL (≈ 44.1 µM) | 25 µg/mL (≈ 22.1 µM) |  |  |  |  |
| CCCCC/C=C/C=C/[C@@H](O)C/C=C/C=C/C(=O)O[C@@H]1[C@@H](O)[C@H](c2c(O)cc(O)cc2CO)O[C@H](CO)[C@H]1O[C@@H]1O[C@H](COC(=O)c2ccc3c(ccc4ccccc43)c2)[C@H](O)[C@H](O)[C@H]1O[C@@H]1O[C@H](CO)[C@H](O)[C@H](O)[C@H]1O [Example 25] |  |  |  |  | 0.78 µg/mL (≈ 0.724 µM) | 1.56 µg/mL (≈ 1.45 µM) | 1.56 µg/mL (≈ 1.45 µM) | 0.78 µg/mL (≈ 0.724 µM) | 1.56 µg/mL (≈ 1.45 µM) |
| CCCCC/C=C/C=C/[C@@H](O)C/C=C/C=C/C(=O)O[C@@H]1[C@@H](O)[C@H](c2c(O)cc(O)cc2CO)O[C@H](CO)[C@H]1O[C@@H]1O[C@H](COC(=O)c2ccc3ccc4ccccc4c3c2)[C@H](O)[C@H](O)[C@H]1O[C@@H]1O[C@H](CO)[C@H](O)[C@H](O)[C@H]1O [Example 26] |  |  |  |  | 1.56 µg/mL (≈ 1.45 µM) | 0.78 µg/mL (≈ 0.724 µM) | 0.78 µg/mL (≈ 0.724 µM) | 0.78 µg/mL (≈ 0.724 µM) | 1.56 µg/mL (≈ 1.45 µM) |
| CCCCC/C=C/C=C/[C@@H](O)C/C=C/C=C/C(=O)O[C@@H]1[C@@H](O)[C@H](c2c(O)cc(O)cc2CO)O[C@H](CO)[C@H]1O[C@@H]1O[C@H](COC(=O)c2cc3ccccc3c3ccccc23)[C@H](O)[C@H](O)[C@H]1O[C@@H]1O[C@H](CO)[C@H](O)[C@H](O)[C@H]1O [Example 27] |  |  |  |  | 3.12 µg/mL (≈ 2.9 µM) | 3.12 µg/mL (≈ 2.9 µM) | 3.12 µg/mL (≈ 2.9 µM) | 3.12 µg/mL (≈ 2.9 µM) | 6.25 µg/mL (≈ 5.8 µM) |
| CCCCC/C=C/C=C/[C@@H](O)C/C=C/C=C/C(=O)O[C@@H]1[C@@H](O)[C@H](c2c(O)cc(O)cc2CO)O[C@H](CO)[C@H]1O[C@@H]1O[C@H](COC(=O)c2ccc3c(c2)-c2ccccc2-3)[C@H](O)[C@H](O)[C@H]1O[C@@H]1O[C@H](CO)[C@H](O)[C@H](O)[C@H]1O [Example 28] | 1.56 µg/mL (≈ 1.48 µM) | 1.56 µg/mL (≈ 1.48 µM) | 0.39 µg/mL (≈ 0.371 µM) | 0.78 µg/mL (≈ 0.742 µM) | 0.39 µg/mL (≈ 0.371 µM) |  |  |  |  |
